Measurements from US11548871B2, “Triazole carbamate pyridyl sulfonamides as LPA receptor antagonists and uses thereof” (Gilead Sciences, Inc., priority 2019, dated 2023).

molecular target: human LPAR1 (Homo sapiens, UniProt Q92633); assay: LPAR1 intracellular calcium mobilization assay (antagonist mode)
Sequence (Q92633 whole entry): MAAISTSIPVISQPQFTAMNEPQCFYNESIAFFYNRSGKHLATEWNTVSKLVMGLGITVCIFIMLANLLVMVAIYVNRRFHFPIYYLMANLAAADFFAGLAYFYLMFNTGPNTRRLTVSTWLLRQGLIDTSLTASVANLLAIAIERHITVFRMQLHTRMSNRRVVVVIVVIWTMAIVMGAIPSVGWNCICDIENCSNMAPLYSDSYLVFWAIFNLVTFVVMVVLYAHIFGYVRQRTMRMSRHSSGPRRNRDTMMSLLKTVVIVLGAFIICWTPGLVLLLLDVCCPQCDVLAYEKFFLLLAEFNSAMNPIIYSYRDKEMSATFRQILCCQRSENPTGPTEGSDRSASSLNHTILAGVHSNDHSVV
Experimental: In vitro LPAR1 activity was measured in an intracellular calcium mobilization assay.
Prior to testing cell media were aspirated from the cells and replaced with 20 μL Calcium Dye Loading Buffer (DiscoverX Calcium NoWash^PLUS Assay Kit cat #90-0091) and 2.5 mM Probenecid (Sigma Aldrich cat #P8761, prepared fresh) in HBSS/20 mM Hepes for 60 min at 37° C.
For agonist dose curves, cells were removed from the incubator after dye loading and 10 μL HBSS/20 mM Hepes including 3× vehicle was added. Cells were incubated for 30 min at room temperature in the dark to equilibrate plate temperatures. An intermediate LPA dilution series was prepared in assay buffer to generate 4× stock. Calcium mobilization was monitored on a FLIPR Tetra (MDS, San Jose, Calif.) for 2 min and 10 μL 4×LPA in HBSS/20 mM Hepes was added to the cells 5 s into the assay.
An intermediate antagonist dilution series was prepared as 3× samples in assay buffer. After dye loading, cells were removed from the incubator and 10 μL 3× antagonist was added. Cells were incubated for 30 min at room temperature in the dark to equilibrate plate temperatures. The final vehicle (DMSO) concentration was 1%. Compound antagonist activities was measured on a FLIPR Tetra. Calcium mobilization was monitored for 2 min and 10 μL EC80 agonist in HBSS/20 mM Hepes was added to the cells 5 s into the assay. Compound activity was analyzed using CBIS data analysis suite (ChemInnovation Software, San Diego, Calif.).

Row | EC50 [nM] | Structure (SMILES)
1 | 730 | Cc1nc(-c2nnn(C)c2NC(=O)O[C@H](CC#N)c2ccccc2)ccc1NS(C)(=O)=O [Compound 50, (R)-2-cyano-1-phenylethyl (1-methyl-4-(6-methyl-5-(methylsulfonamido)pyridin-2-yl)-1H-1,2,3-triazol-5-yl)carbamate]
2 | 920 | COc1ncccc1[C@@H](C)OC(=O)Nc1c(-c2ccc(NS(C)(=O)=O)c(C)n2)nnn1C [Compound 122, (R)-1-(2-methoxypyridin-3-yl)ethyl (1-methyl-4-(6-methyl-5-(methylsulfonamido)pyridin-2-yl)-1H-1,2,3-triazol-5-yl)carbamate]
3 | 469 | COCC(OC(=O)Nc1c(-c2ccc(NS(C)(=O)=O)c(C)n2)nnn1C)c1ccccc1 (stereo not drawn) [Compound 34, 2-methoxy-1-phenylethyl (1-methyl-4-(6-methyl-5-(methylsulfonamido)pyridin-2-yl)-1H-1,2,3-triazol-5-yl)carbamate]
4 | 30 | Cc1nc(-c2nnn(C)c2NC(=O)O[C@H](C)c2cc(Cl)ccc2Cl)ccc1NS(C)(=O)=O [Compound 61, (R)-1-(2,5-dichlorophenyl)ethyl (1-methyl-4-(6-methyl-5-(methylsulfonamido)pyridin-2-yl)-1H-1,2,3-triazol-5-yl)carbamate]

Continued, molecule first:

Row | Structure (SMILES) | EC50 [nM]
5 | CNS(=O)(=O)Nc1ccc(-c2nnn(C)c2NC(=O)O[C@H](C)c2cccnc2Cl)nc1C [Compound 163, (R)-1-(2-chloropyridin-3-yl)ethyl (1-methyl-4-(6-methyl-5-((N-methylsulfamoyl)amino)pyridin-2-yl)-1H-1,2,3-triazol-5-yl)carbamate] | 208
6 | C[C@@H](OC(=O)Nc1c(-c2ccc(NS(C)(=O)=O)cn2)nnn1C)c1cc(F)cnc1F [Compound 114, (R)-1-(2,5-difluoropyridin-3-yl)ethyl (1-methyl-4-(5-(methylsulfonamido)pyridin-2-yl)-1H-1,2,3-triazol-5-yl)carbamate] | 48.8
7 | Cc1nc(-c2nnn(C)c2NC(=O)O[C@H](C)c2nc(Cl)sc2Cl)ccc1NS(C)(=O)=O [Compound 139, (R)-1-(2,5-dichlorothiazol-4-yl)ethyl (1-methyl-4-(6-methyl-5-(methylsulfonamido)pyridin-2-yl)-1H-1,2,3-triazol-5-yl)carbamate] | 163
8 | COCc1nc(-c2nnn(C)c2NC(=O)O[C@H](C)c2cc(F)cnc2Cl)ccc1NS(C)(=O)=O [Compound 144, (R)-1-(2-Chloro-5-fluoropyridin-3-yl)ethyl (4-(6-(methoxymethyl)-5-(methylsulfonamido)pyridin-2-yl)-1-methyl-1H-1,2,3-triazol-5-yl)carbamate] | 235
9 | CCCCC[C@@H](C)OC(=O)Nc1c(-c2ccc(NS(C)(=O)=O)c(C)n2)nnn1C [Compound 71, (R)-heptan-2-yl (1-methyl-4-(6-methyl-5-(methylsulfonamido)pyridin-2-yl)-1H-1,2,3-triazol-5-yl)carbamate] | 1740
10 | Cc1ncc(S(=O)(=O)Nc2ccc(-c3nnn(C)c3NC(=O)O[C@H](C)c3cccc(F)c3)nc2C)s1 [Compound 107, (R)-1-(3-fluoro-phenyl)ethyl (1-methyl-4-(6-methyl-5-((2-methylthiazole)-5-sulfonamido)pyridin-2-yl)-1H-1,2,3-triazol-5-yl)carbamate] | 1120
11 | C[C@@H](OC(=O)Nc1c(-c2ccc(NS(=O)(=O)NC3CC3)cn2)nnn1C)c1cccnc1Cl [Compound 159, (R)-1-(2-chloropyridin-3-yl)ethyl (4-(5-((N-cyclopropylsulfamoyl)amino)pyridin-2-yl)-1-methyl-1H-1,2,3-triazol-5-yl)carbamate] | 240
12 | CCCCCC[C@H](OC(=O)Nc1c(-c2ccc(NS(C)(=O)=O)c(C)n2)nnn1C)C(F)(F)F [Compound 51, (S)-1,1,1-trifluorooctan-2-yl (1-methyl-4-(6-methyl-5-(methylsulfonamido)pyridin-2-yl)-1H-1,2,3-triazol-5-yl)carbamate] | 1250
